Data: patent publication US4600780A, “N-cyano-formamidines” (Ferrer International, S.A., priority 1983, dated 1986)
Counter-ions that a name gives are not always drawn.

Target: T1, histamine H2 -receptors (Rattus norvegicus, UniProt P25102)
T1 construct: from tissue; host or cells: stomach of living anaesthetized Sprague-Dawley rats (in vivo perfusion)
Experiment: Blocking activity of histamine H2-receptors: inhibition of histamine-induced perfusate pH decrease (gastric acid secretion) in perfused stomach of anaesthetized rats
Format: in vivo, Sprague-Dawley albino male rats
Conditions: for ED50: rat, iv, anaesthetized rats, perfused stomach, histamine 0.325 μmols/kg/min, test drugs via femoral veins, read-out: ED50 (inhibition rate of maximal pH decrease in relation to initial pH); for times more active than Cimetidine, according to ED50 values: ratio of ED50 values to Cimetidine (Table 1)
Experimental: The blocking activity of histamine H2 -receptors was tested in Sprague-Dawley albino male rats weighing 350-450 g. Animals subject to 18-hour fasting were anaesthetized with urethane (1.5 g/kg i.p.), after which a longitudinal incision was performed on the abdominal wall, and pylorus and esophagus were cannulated for subject perfusion. In addition, femoral veins were cannulated for administration of test drugs and histamine solution.
The animals' stomachs were perfused with 1/8000N NaOH diluted solution at a rate of 2 ml/min. The perfusion liquid was then circulated through a 3 ml-volume chamber provided with a pH meter electrode. After calibrating the pH, histamine was perfused at 0.325 μmols/kg/min. The histamine perfusion caused a decrease of the perfusion liquid pH, which was inhibited by the compounds of the present invention.

T1 sequence (P25102 whole entry, the tested form may be a part): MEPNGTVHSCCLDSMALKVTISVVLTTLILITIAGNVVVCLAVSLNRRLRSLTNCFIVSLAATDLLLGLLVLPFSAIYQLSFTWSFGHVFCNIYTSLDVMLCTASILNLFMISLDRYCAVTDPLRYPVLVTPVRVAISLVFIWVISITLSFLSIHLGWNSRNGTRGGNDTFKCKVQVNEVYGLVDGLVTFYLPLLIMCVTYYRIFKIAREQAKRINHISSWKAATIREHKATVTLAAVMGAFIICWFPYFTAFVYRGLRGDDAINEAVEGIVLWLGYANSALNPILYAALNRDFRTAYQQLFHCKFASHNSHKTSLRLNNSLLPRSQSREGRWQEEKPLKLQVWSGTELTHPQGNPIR

Structure (SMILES): N#CN=CNCCSCc1csc(NC(=N)N)n1 [Example 3, N-cyano-N'-[2-[[[2-[(aminoiminomethyl)amino]-4-thiazolyl]methyl]thio]ethyl]formamidine maleate acid]
- ED50: 2.17 µmol/kg
- times more active than Cimetidine, according to ED50 values: 2.6 times

Structure (SMILES): CN/C(=N/CCSCc1nc[nH]c1C)NC#N [Cimetidine, reference compound]
- ED50: 5.6 µmol/kg

Structure (SMILES): N#CN=CNCCCOc1cccc(CN2CCCCC2)c1 [Example 4, N-cyano-N'-[3-[3-(1-piperidinylmethyl)phenoxy]propyl]formamidine hydrochloride]
- ED50: 3.2 µmol/kg
- times more active than Cimetidine, according to ED50 values: 1.8 times
